Like-named read-outs stand apart in the source and are kept apart here.
Columns and labels:
[1] = system: healthy erythrocytes (human RBCs)
Description: Hemolysis assays were performed using human RBCs according to previous reports ([38]). Briefly, serial dilutions of peptides were incubated with 2% hematocrit RBCs (in PBS) at 37°C for three different time points (15, 30, and 60 min) in triplicates. After incubation, the RBCs were centrifuged for 10 min at 1,000 × g and the absorbance of the supernatants at 540 nm was read by a spectrophotometer to assess the level of the released hemoglobin. Maximum hemolysis was determined by substituting the sample with 1% Triton X-100, which completely lyses the cells. […] Hemolysis of peptides was calculated using the following formula: Hemolysis (%) = (A540 of peptide- A540 of PBS) * 100/A540 of Triton X-100. Two independent tests with three technical replicates were performed for each hemolysis assay.

[2] = system: Plasmodium berghei (ANKA); type: in vivo; settings: for Inhibition (%) of P. berghei growth: parasitemia on day 4, BALB/c mice
Description: The in vivo antimalarial activity of peptides was evaluated using a 4-day suppressive test in P. berghei-infected mouse model mice ([44]). The mice were divided into five groups of six mice. Donor mice were infected with 200 µL of P. berghei parasite inoculum by intraperitoneal injection. Parasitized blood was collected from the tail vein of donor mice and diluted with 0.9% sodium chloride solution. Mice were then infected with saline suspension of 1 × 10^7 parasitized erythrocytes (0.2 mL) by intraperitoneal injection (Day0). Four hours after infection, each of the three groups of mice was treated with peptide by intraperitoneal injection at daily doses of 10, 25, and 50 mg/kg for 4 consecutive days. Positive control mice were treated with chloroquine at daily doses of 10 mg/kg and negative control mice with normal saline. On day 4 (96 hours post infection), the parasitemia of each mouse was determined under a light microscope by examination of Giemsa’s solution-stained thin blood smears prepared from mouse tail blood ([28]). The mean parasitemia in each group of mice was used to calculate the % suppression for each dose using the following formula:
%suppression = (parasitemia of negative control − parasitemia of test) * 100/parasitemia of negative control.
The antimalarial activity of the peptides was determined from the ratio of the percentage of parasite reduction in treated and negative control groups ([44]). Results were expressed as median (range) values.

[3] = system: Escherichia coli (ATCC 25922); experiment: Antimicrobial assay, broth dilution; type: cell-based; settings: E. coli
Description: (§1) Gram-positive bacteria S. aureus, B. subtilis, and Gram-negative E. coli were used in antimicrobial assays. Bacteria were first grown in LB (Luria-Bertani) broth to an absorbance of 0.8 at 600 nm. The antibacterial behavior of the peptides was studied via the agar disc diffusion assay and broth microdilution method ([41], [42]). The agar plates were made by pouring 20 mL of LB broth containing 1.5% agar into 60-mm Petri dishes. Then, a 100-µL bacterial suspension (10^6 CFU/mL) was spread over the LB agar plate. Ten microliters of the 2-mg/mL peptide sample was carefully dropped onto sterile 2-mm diameter paper discs that had been previously attached to the plate. The plates were carefully placed in an incubator at 37°C for 24 hours. If an examined sample had antimicrobial activity, a clear zone was observed around the filter paper representing inhibition of bacterial growth. The MIC was determined by the broth dilution method, and the absorbance value was measured at an optical density at 600 nm (OD600) to determine the inhibition rate of peptides at different concentrations against each bacteria. Then, the MIC at which no visible growth occurred was recorded ([38]). The MIC50 was calculated by GraphPad Prism.

[4] = system: Staphylococcus aureus (ATCC 6538); experiment: Antimicrobial assay, broth dilution; type: cell-based; settings: S. aureus
Description: as §1

Bacillus subtilis (ATCC) = experiment: Antimicrobial assay, broth dilution; type: cell-based; settings: B. subtilis
Description: as §1

[5] = system: Plasmodium falciparum 3D7; experiment: Transmission electron microscope analysis of parasite morphology; type: cell-based; settings: TEM
Description: 3D7 strain parasites with parasitemia of 3% ~ 5% at a hematocrit of 2% were planted in 12-well plates, 3 mL/well. A 40-µM concentration of An-cecB or 200 µM An-cecB-1 was added and incubated for 30 min or 60 min. PBS was used as a control.
After incubation, the parasites were washed three times with ICM, and the electron microscope fixative solution (provided by the company) was added to keep the parasites clumped for 2 hours at room temperature. Finally, the samples were sent to a commercial company at 4°C for transmission electron microscope analysis.

[6] = system: P. falciparum 3D7 (sensitive strain); experiment: In vitro antimalarial activity, 3-day inhibition assay; type: cell-based, Plasmodium falciparum; settings: Giemsa smears
Description: Blood stages of the laboratory clones P. falciparum 3D7 (sensitive strain), P. falciparum 803 (artemisinin-resistant strain), and P. falciparum Dd2 (chloroquine-resistant strain) were cultured in vitro according to the method of Trager and Jensens with minor modifications ([37]). Briefly, cultures were maintained in O-positive human erythrocytes (RBCs) as host cells at 2% hematocrit and maintained in complete medium (CM) [RPMI-1640 culture medium supplemented with NaHCO3 (2 mg/mL), hypoxanthine (50 µg/mL), HEPES (5.96 mg/mL), albumax II (1%), and gentamicin (40 µg/mL)]. The cultures were diluted to 1% parasitemia and 2% hematocrit in CM and incubated in a humidified atmosphere with 5% O2, 5% CO2, and 90% N2 at 37°C. Prior to experiments, the cultures were highly synchronized for ring stages using 5% sorbitol twice at a 40-h interval. Briefly, ring stage cultures were centrifuged and the pellet was washed once in incomplete medium (ICM, RPMI-1640 without addition). Then, the pellet was resuspended in 5% sorbitol and incubated at 37°C for 10 min. After incubation, the suspension was centrifuged and the pellet was washed once and resuspended in medium. The development of the parasite was observed using light microscopy, and parasitemia was determined by counting at least 10,000 RBCs on Giemsa’s solution-stained thin blood smears.
Highly synchronous ring stage parasites were used to investigate the in vitro antimalarial activity of the peptides. For preliminary screening of in vitro antimalarial activity, a 3-day inhibition assay was used to test the antimalarial activity of An-cecA, An-cecB, and An-cecC. […] For IC50 assay, a series of concentrations of peptides were added to the parasite culture. The concentrations of An-cecB were 5, 15, 20, 25, 30, 35, and 40 µM, while those of An-cecB-1 were 20, 30, 40, 50, 60, 70, 80, and 90 µM. After 72 hours of incubation, the antimalarial effects of peptides were estimated. Thin blood films stained with Giemsa’s solution were counted under a microscope. The parasitemia of cultures treated with peptides was compared with that of control. IC50 was calculated by GraphPad Prism.

[7] = 40 µM An-cecB or 200 µM An-cecB-1, total 20 / 22

Description for HEK293T cells: The mammalian cell lines HepG2 and HEK293T were used for cytotoxicity tests. The cells were cultured in Dulbecco’s modified Eagle medium supplemented with 10% fetal bovine serum and 1% penicillin/streptomycin in an incubator at 37°C with 5% CO2. Cells were seeded at a density of 1 × 10^5 cells/mL per well into a 96-well plate overnight and treated with different concentrations of peptides for 48 hours. To analyze the CC50 of peptides, a series of concentrations of peptides (0, 5, 10, 20, 30, 40, 50, 60, and 70 µM) were set to detect their cytotoxic concentrations. Then, 10% CCK-8 solution was added into each well and incubated for another 2 hours. The absorbance was monitored by a microplate reader at 450 nm. PBS was used as a negative control and the inhibition of each drug was normalized to that of the PBS control. CC50 was calculated by GraphPad Prism. Two independent assays with three technical replicates each time were conducted.

In the case of “APRWKFGKRLEKLGRNVFRAA KKALPVIAGYKAL-NH2 [An-cecB]”, the hemolysis rate ([1]; 10 µM) is reported as “less than 2%”, the hemolysis rate ([1]; 20 µM) is reported as “less than 2%” and the hemolysis rate ([1]; 40 µM) is reported as “less than 5%”. The “Inhibition (%) of P. berghei growth” value ([2]; 10 mg/kg daily i.p. for 4 consecutive days) was 0.63%, the “Inhibition (%) of P. berghei growth” value ([2]; 25 mg/kg daily i.p. for 4 consecutive days) was 5.12% and the “mortality of infected mice in the 4-day suppressive test” value ([2]; in vivo) was “all infected mice died before the end of the experiment”. The CC50 (HEK293T cells) was 57.33 µM, the “cytotoxicity to HEK293T cells” value (HEK293T cells) was “dose-dependently inhibited the cell viability” and the MIC ([3]; OD600) was 3.75 µM. It also gave an MIC50 ([3]; OD600, GraphPad Prism) of 0.63 µM, an MIC ([4]; OD600) of 30 µM and an MIC50 ([4]; OD600, GraphPad Prism) of 7.314 µM. The MIC (Bacillus subtilis (ATCC); OD600) was 3.75 µM, the MIC50 (Bacillus subtilis (ATCC); OD600, GraphPad Prism) was 0.85 µM and the “Normal (number of parasites)” value ([5]; 40 µM An-cecB or 200 µM An-cecB-1, 30 or 60 min, total 20 (An-cecB), 22 (An-cecB-1)) was 7. The “Disintegration (number of parasites)” value [5, 7] was 3, the “Parasite disoriented (number of parasites)” value [5, 7] was 4 and the “Parasite membrane dissolution (number of parasites)” value [5, 7] was 7. The “Parasite shrunken (number of parasites)” value [5, 7] was 9, the “Vacuole formation (number of parasites)” value [5, 7] was 3 and the inhibition rate ([6]; 50 µM peptide, 72 h, ring stage, 1% parasitemia, 2% hematocrit) was 100%. For the same sequence, the IC50 ([6]; 3D7, 72 h incubation, GraphPad Prism, two independent assays, three technical replicates) was 12.4 µM.
